Test results taken from patent US10167262B2, “Herbicidal substituted 3-arylpyrazoles” (FMC CORPORATION, priority 2014, dated 2019).

Columns and labels:
Experiment in all cases: Test C pre-/postemergence greenhouse test, plant response rating 0-100;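 for Plant response rating (0 to 100), Blackgrass: 0 is no effect and 100 is complete control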;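 for Plant response rating (0 to 100), Ragweed: 0 is no effect and 100 is complete control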;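 for Plant response rating, Blackgrass: 0 is no effect and 100 is complete control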;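 for Plant response rating, Ragweed: 0 is no effect and 100 is complete control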
Format in all cases: in vivo
Settings in all cases: Postemergence
[1] = tested on: large (Lg) crabgrass (Digitaria sanguinalis)
Method in brief: (§1)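 Seeds were sown in a loam soil–sand blend and sprayed preemergence with test chemicals in a non-phytotoxic solvent mixture containing surfactant; postemergence plants in peat/vermiculite medium were treated at 2–18 cm (1- to 4-leaf stage). After 13 to 15 days in the greenhouse, injury was rated visually against untreated controls.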

[2] = tested on: Italian ryegrass (Lolium multiflorum)
Method in brief: as §1

[3] = tested on: yellow nutsedge (Cyperus esculentus)
Method in brief: as §1

[4] = tested on: giant foxtail (Setaria faberii)
Method in brief: as §1

[5] = tested on: ragweed (common ragweed, Ambrosia elatior);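 note: 0 is no effect and 100 is complete control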
Method in brief: as §1

corn (Zea mays) = tested on: corn (Zea mays)
Method in brief: as §1

[6] = tested on: lambsquarters (Chenopodium album)
Method in brief: as §1

[7] = tested on: velvetleaf (Abutilon theophrasti)
Method in brief: as §1

[8] = tested on: winter wheat (Triticum aestivum)
Method in brief: as §1

soybean (Glycine max) = tested on: soybean (Glycine max)
Method in brief: as §1

[9] = tested on: blackgrass (Alopecurus myosuroides);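 note: 0 is no effect and 100 is complete control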
Method in brief: as §1

[10] = tested on: johnsongrass (Sorghum halepense)
Method in brief: as §1

[11] = tested on: pigweed (Amaranthus retroflexus)
Method in brief: as §1

Structure (SMILES): CCn1cc(C(=NN2CCCC2)c2ccccc2)c(-c2cc(Cl)cc(Cl)c2)n1 [Compound 37]
- Plant response rating (0 to 100), Crabgrass, Large ([1]; 31 g ai/ha): 10
- Plant response rating (0 to 100), Crabgrass, Large ([1]; 62 g ai/ha): 10
- Plant response rating (0 to 100), Crabgrass, Large ([1]; 125 g ai/ha): 10
- Plant response rating, Crabgrass, Large ([1]; 250 g ai/ha, scale 0 to 100): 10
- Plant response rating (0 to 100), Ryegrass, Italian ([2]; 62 g ai/ha): 0
- Plant response rating (0 to 100), Ryegrass, Italian ([2]; 125 g ai/ha): 0
- Plant response rating, Ryegrass, Italian ([2]; 250 g ai/ha, scale 0 to 100): 0
- Plant response rating (0 to 100), Nutsedge, Yellow ([3]; 62 g ai/ha): 10
- Plant response rating (0 to 100), Nutsedge, Yellow ([3]; 125 g ai/ha): 10
- Plant response rating, Nutsedge, Yellow ([3]; 250 g ai/ha, scale 0 to 100): 10
- Plant response rating (0 to 100), Foxtail, Giant ([4]; 31 g ai/ha): 0
- Plant response rating (0 to 100), Foxtail, Giant ([4]; 62 g ai/ha): 0
- Plant response rating (0 to 100), Foxtail, Giant ([4]; 125 g ai/ha): 25
- Plant response rating, Foxtail, Giant ([4]; 250 g ai/ha, scale 0 to 100): 25
- Plant response rating (0 to 100), Ragweed ([5]; 62 g ai/ha): 5
- Plant response rating (0 to 100), Ragweed ([5]; 125 g ai/ha): 5
- Plant response rating, Ragweed ([5]; 250 g ai/ha, scale 0 to 100): 20
- Plant response rating (0 to 100), Corn (corn (Zea mays); 31 g ai/ha): 0
- Plant response rating (0 to 100), Corn (corn (Zea mays); 62 g ai/ha): 0
- Plant response rating (0 to 100), Corn (corn (Zea mays); 125 g ai/ha): 5
- Plant response rating, Corn (corn (Zea mays); 250 g ai/ha, scale 0 to 100): 5
- Plant response rating (0 to 100), Lambsquarters ([6]; 62 g ai/ha): 45
- Plant response rating (0 to 100), Lambsquarters ([6]; 125 g ai/ha): 55
- Plant response rating, Lambsquarters ([6]; 250 g ai/ha, scale 0 to 100): 65
- Plant response rating (0 to 100), Velvetleaf ([7]; 62 g ai/ha): 75
- Plant response rating (0 to 100), Velvetleaf ([7]; 125 g ai/ha): 80
- Plant response rating, Velvetleaf ([7]; 250 g ai/ha, scale 0 to 100): 98
- Plant response rating (0 to 100), Wheat ([8]; 62 g ai/ha): 0
- Plant response rating (0 to 100), Wheat ([8]; 125 g ai/ha): 0
- Plant response rating, Wheat ([8]; 250 g ai/ha, scale 0 to 100): 0
- Plant response rating (0 to 100), Soybean (soybean (Glycine max); 62 g ai/ha): 5
- Plant response rating (0 to 100), Soybean (soybean (Glycine max); 125 g ai/ha): 5
- Plant response rating, Soybean (soybean (Glycine max); 250 g ai/ha, scale 0 to 100): 5
- Plant response rating (0 to 100), Blackgrass ([9]; 31 g ai/ha): 0
- Plant response rating (0 to 100), Blackgrass ([9]; 62 g ai/ha): 0
- Plant response rating (0 to 100), Blackgrass ([9]; 125 g ai/ha): 0
- Plant response rating, Blackgrass ([9]; 250 g ai/ha, scale 0 to 100): 0
- Plant response rating (0 to 100), Johnsongrass ([10]; 62 g ai/ha): 0
- Plant response rating (0 to 100), Johnsongrass ([10]; 125 g ai/ha): 0
- Plant response rating, Johnsongrass ([10]; 250 g ai/ha, scale 0 to 100): 0
- Plant response rating (0 to 100), Pigweed ([11]; 62 g ai/ha): 75
- Plant response rating (0 to 100), Pigweed ([11]; 125 g ai/ha): 80
- Plant response rating, Pigweed ([11]; 250 g ai/ha, scale 0 to 100): 100
